# Laboratory results published in patent US5599808A, “Aqueous indolocarbazole solutions” (Cephalon, Inc., priority 1995, dated 1997).
# What was measured:
# physchem = settings: organic solvent or mixture
# Experimental: In general, a solution of the concentrate can be prepared by combining a dispersant such as polyvinylpyrrolidone C-30 and a selected organic solvent such as propylene glycol into a beaker. The mixture is continuously stirred until completely dissolved. Solid PVP or other solution components may take 1-2 hours to dissolve completely at room temperature.
# An amount of an indolocarbazole, for example, staurosporine, K-252a, or any one of indolocarbazole A, B, or C (Table 1) can each be individually weighed and added to a small aliquot of the aqueous solution, resulting in a 10 mg/ml solution after the indolocarbazole completely dissolves. Alternatively, a mixture of indolocarbazoles may be combined, weighed, and added to a small aliquot of the aqueous solution resulting in a 10 mg/ml solution after the indolocarbazole completely dissolves. An indolocarbazole solution can be stirred or shaken vigorously overnight. Any undissolved indolocarbazole is removed by standard centrifugation or filtration techniques. The concentration of solubilized indolocarbazole can be determined by reversed phase HPLC using a UV detector (290 nm).
# The following HPLC conditions are used to determine the concentration of an indolocarbazole:
# HPLC Column: Zorbax Rx C-18 4.6×250 mm, 5 micron particle size
# Prior to injection of an indolocarbazole solution, there is allowed a 10 minute equilibration time.
# Fifty g of PEG-400 were added to 50 ml of water and the mixture vigorously stirred until completely dissolved. One mg of either K-252a, staurosporine or the indolocarbazoles B or C (see Table 1) were added individually to a 100 μl aliquot of the PEG-400 solution and the resulting mixture was shaken overnight. The solution was clarified by centrifugation at 1000 rpm for 10 minutes. The supernatant was saved and any residue discarded. Ten μl of the supernatant was removed, diluted with DMSO (100:1) and the concentration of dissolved K-252a determined by HPLC.
# Same as example 1 except that PEG-600 was used instead of PEG-400.
# Same as example 1 except that PEG-1000 was used instead of PEG-400.
# Same as example 1 except that 48 ml of water was used and 2 g of benzyl alcohol was added to the PEG-400 solution.
# Same as example 2 except that 48 ml of water was used and 2 g of benzyl alcohol was added to the PEG-600 solution.
# Same as example 3 except that 48 ml of water was used and 2 g of benzyl alcohol was added to the PEG-1000 solution.
# 2.5 g of benzyl alcohol was added to 47.5 g of PEG-400 and, in a separate container, 2.5 g of Pluronic F68 was added to 47.5 ml of water. Each solution was stirred until completely dissolved, then each solution was combined and stirred until homogeneous. One mg of K-252a was added to 100 μl of the solution and the resulting mixture was shaken overnight. The solution was clarified by centrifugation at 1000 rpm for 10 minutes. Ten (10) μl of supernatant was removed, diluted with DMSO (100:1), and the concentration of dissolved K-252a determined by HPLC.
# Same as example 7 except that Pluronic™ L61 was used instead of Pluronic™ F68.
# Same as example 7 except that Pluronic™ L64 was used instead of Pluronic™ F68.
# Same as example 7 except that Tween™ 20 was used instead of Pluronic™ F68.
# Same as example 7 except that Tween™ 80 was used instead of Pluronic™ F68.
# Same as example 7 except that PVP was used instead of Pluronic™ F68 and PEG-300 was used instead of PEG-400.
# Same as example 12 except that PEG-400 was used instead of PEG-300 and indolocarbazoles A, B or C were each solubilized individually in addition to K-252a.
# Same as example 12 except that PEG-600 was used instead of PEG-300 and indolocarbazoles A, B or C were each solubilized individually in addition to K-252
# Same as example 12 except that PEG-1000 was used instead of PEG-300.
# Ten (10) g of Triton X-100 was added to 38 ml of water and the mixture was stirred thoroughly.
# [1] = Experimental: In a flask, 10 g of PVP (k value of 17) was added to 990 grams of propylene glycol. This mixture was stirred until the PVP was completely dissolved. Two hundred fifty (250) mg of compound A (Table 1) was added to 10 ml of the above solution and the mixture was stirred until compound A was completely dissolved. This solution is called Indolocarbazole Propylene Glycol Concentrate (IPGC).
# To test for the stability of an indolocarbazole in this solution, 1 ml aliquots of IPGC were removed and placed in small amber colored vials and kept at 4° C room temperature (about 25° C.), 37° C, and 60° C for 4, 7, 14 and 30 days. The sample at 4° C was kept in a refrigerator and received light when a door was opened. The sample at room temperature was placed on the laboratory bench and exposed to the fluorescent lights of the room during the day. The samples at 37° C and 60° C were kept in small incubators essentially in the dark. A 1 ml aliquot of the same IPGC was added to a clear vial and that vial was kept at 25° C in 300 foot candles of light for 4, 7, 14 and 30 days. At each interval of time, an aliquot of IPGC was removed from each vial, diluted 200 fold in DMSO and the concentration of compound A determined by reversed phase HPLC using a UV detector (290 nm).
# In this example, compound A was further diluted in Indolocarbazole Diluent Solution. […]
# [2] = cited from earlier work; for insolubility in water: Nakanishi et al.
# [3] = peg 400/ba/pvp/h2o, Concentration Obtained
# [4] = peg 600/ba/pvp/h2o, Concentration Obtained
# [5] = peg 600/ba/pvp/h2o, Concentration Obtained (saturation level)
# [6] = peg 1000/ba/pvp/h2o, Concentration Obtained
# [7] = 50% peg 400, 50% h2o, Concentration Obtained, Example 1: 50% PEG 400, 50% H2O, target 10 mg/ml
# [8] = 50% peg 600, 50% h2o, Concentration Obtained, Example 2: 50% PEG 600, 50% H2O, target 10 mg/ml
# [9] = 50% peg 1000, 50% h2o, Concentration Obtained, Example 3: 50% PEG 1000, 50% H2O, target 10 mg/ml
# [10] = peg 400/ba/h2o, Concentration Obtained, Example 4: 50% PEG 400, 2% BA, 48% H2O, target 10 mg/ml
# [11] = peg 600/ba/h2o, Concentration Obtained, Example 5: 50% PEG 600, 2% BA, 48% H2O, target 10 mg/ml
# [12] = peg 600/ba/pvp/h2o, Concentration Obtained (saturation level), Example 22: 50% PEG 600, 2% BA, 10% PVP, 38% H2O, 10 mg added
# [13] = peg 1000/ba/h2o, Concentration Obtained, Example 6: 50% PEG 1000, 2% BA, 48% H2O, target 10 mg/ml
smiles,measurement,setting,value
COC1(CO)CC2OC1(C)n1c3ccccc3c3c4c(c5c6ccccc6n2c5c31)C(=O)NC4 (centres unmarked) [Compound A],solubility thermodynamic,physchem; [3],10 mg/mL
same,solubility thermodynamic,physchem; [4],10 mg/mL
same,solubility thermodynamic,physchem; [5],40 mg/mL
same,solubility thermodynamic,physchem; [6],10 mg/mL
same,Stability of Compound A in IPGC,[1]; 0 min,100%
same,loss of activity in IPGC,"[1]; propylene glycol with pvp, 720 h",13.3%
COC(=O)C1(O)CC2OC1(C)n1c3ccccc3c3c4c(c5c6cc(O)ccc6n2c5c31)C(=O)NC4 (centres unmarked) [Compound B],solubility thermodynamic,physchem; [7],3.15 mg/mL
same,solubility thermodynamic,physchem; [8],2.68 mg/mL
same,solubility thermodynamic,physchem; [9],4.44 mg/mL
same,solubility thermodynamic,physchem; [10],3.26 mg/mL
same,solubility thermodynamic,"physchem; peg 400/ba/pvp/h2o, Concentration Obtained, Example 13: 47.5% PEG 400, 2.5% BA, 2.5% PVP, 47.5% H2O, target 10 mg/ml",10 mg/mL
same,solubility thermodynamic,physchem; [11],3.59 mg/mL
same,solubility thermodynamic,"physchem; peg 600/ba/pvp/h2o, Concentration Obtained (saturation level), Example 20: 47.5% PEG 600, 2.5% BA, 2.5% PVP, 47.5% H2O, 10 mg added",10 mg/mL
same,solubility thermodynamic,physchem; [12],16.4 mg/mL
same,solubility thermodynamic,"physchem; peg 600/ba/pvp/h2o, Concentration Obtained, Example 14: 47.5% PEG 600, 2.5% BA, 2.5% PVP, 47.5% H2O, target 10 mg/ml",10 mg/mL
same,solubility thermodynamic,physchem; [13],5.02 mg/mL
same,solubility thermodynamic,"physchem; peg 1000/ba/pvp/h2o, Concentration Obtained, Example 19: 40% PEG 1000, 2% BA, 10% PVP, 48% H2O, target 10 mg/ml",10 mg/mL
CC[S+]([O-])Cc1ccc2c(c1)c1c3c(c4c5ccccc5n5c4c1n2C1CC(O)(C(=O)OC)C5(C)O1)CNC3=O (centres unmarked) [Compound C],solubility thermodynamic,"physchem; 50% peg 400, 50% h2o, Concentration Obtained",0.75 mg/mL
same,solubility thermodynamic,"physchem; 50% peg 600, 50% h2o, Concentration Obtained",0.5 mg/mL
same,solubility thermodynamic,"physchem; 50% peg 1000, 50% h2o, Concentration Obtained",0.72 mg/mL
same,solubility thermodynamic,"physchem; peg 400/ba/h2o, Concentration Obtained",1.01 mg/mL
same,solubility thermodynamic,physchem; [3],4 mg/mL
same,solubility thermodynamic,"physchem; peg 600/ba/h2o, Concentration Obtained",0.89 mg/mL
same,solubility thermodynamic,physchem; [4],4.6 mg/mL
same,solubility thermodynamic,physchem; [5],4.6 mg/mL
same,solubility thermodynamic,"physchem; peg 600/ba/triton x-100/h2o, Concentration Obtained",4.63 mg/mL
same,solubility thermodynamic,"physchem; peg 600/ba/tween 80/h2o, Concentration Obtained",4.79 mg/mL
same,solubility thermodynamic,"physchem; peg 1000/ba/h2o, Concentration Obtained",0.8 mg/mL
same,solubility thermodynamic,physchem; [6],6 mg/mL
same,solubility thermodynamic,"physchem; peg 1000/ba/pvp/h2o, Concentration Obtained (saturation level)",5 mg/mL
CC12OC(CC1(O)C(=O)O)n1c3ccccc3c3c4c(c5c6ccccc6n2c5c31)CNC4=O (centres unmarked) [Compound K-252b],"solubility in non-aqueous, toxic solvents",[2],"soluble in non-aqueous, toxic solvents"
O=C1NCc2c1c1c3ccccc3[nH]c1c1[nH]c3ccccc3c21 [Compound K-252c],insolubility in water,[2],insolubility
same,"solubility in non-aqueous, toxic solvents",[2],"soluble in non-aqueous, toxic solvents"
same,solubility in water,[2],insoluble in water
C[C@@H]1O[C@@H](n2c3ccccc3c3c4c(c5c6ccccc6[nH]c5c32)CNC4=O)[C@H](O)[C@H](O)[C@H]1O [Compound K-252d],insolubility in water,[2],insolubility
same,"solubility in non-aqueous, toxic solvents",[2],"soluble in non-aqueous, toxic solvents"
same,solubility in water,[2],insoluble in water
"CN[C@@H]1C[C@H]2O[C@@](C)([C@@H]1OC)n1c3ccccc3c3c4c(c5c6ccccc6n2c5c31)C(=O)NC4 [Staurosporine, staurosporine]",solubility thermodynamic,physchem; [7],0.71 mg/mL
same,solubility thermodynamic,physchem; [8],1.89 mg/mL
same,solubility thermodynamic,physchem; [9],1.65 mg/mL
same,solubility thermodynamic,physchem; [10],1.21 mg/mL
same,solubility thermodynamic,physchem; [11],1.89 mg/mL
same,solubility thermodynamic,physchem; [12],8.4 mg/mL
same,solubility thermodynamic,"physchem; peg 600/ba/pvp/h2o, Concentration Obtained, Example 18: 50% PEG 600, 2% BA, 10% PVP, 38% H2O, target 10 mg/ml",8.41 mg/mL
same,solubility thermodynamic,"physchem; peg 600/ba/triton x-100/h2o, Concentration Obtained, Example 16: 50% PEG 600, 2% BA, 10% Triton X-100, 38% H2O, target 10 mg/ml",7.59 mg/mL
same,solubility thermodynamic,"physchem; peg 600/ba/tween 80/h2o, Concentration Obtained, Example 17: 50% PEG 600, 2% BA, 10% Tween 80, 38% H2O, target 10 mg/ml",4.6 mg/mL
same,solubility thermodynamic,physchem; [13],1.68 mg/mL
